From PubChem BioAssay (NCI)
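These data come from cells grown in 96-well plates and exposed to compound for 48 hours at five concentrations. The concentration for 50% growth inhibition is given as GI50. TGI is the concentration that stops growth completely.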

What was measured:
Assay in all cases: NCI-60 cell line screen, 48 h
HCT-15 colon = system: HCT-15 colon
A498 renal = system: A498 renal
HOP-92 NSCLC = system: HOP-92 NSCLC
SN12C renal = system: SN12C renal
NCI-H460 lung = system: NCI-H460 lung
NCI-H522 lung = system: NCI-H522 lung
SNB-19 CNS = system: SNB-19 CNS
HOP-62 NSCLC = system: HOP-62 NSCLC
RPMI-8226 leukemia = system: RPMI-8226 leukemia
NCI-H226 lung = system: NCI-H226 lung
OVCAR-8 ovarian = system: OVCAR-8 ovarian
RXF 393 renal = system: RXF 393 renal
SK-MEL-28 melanoma = system: SK-MEL-28 melanoma
ACHN renal = system: ACHN renal
A549 NSCLC = system: A549 NSCLC
SF-295 CNS = system: SF-295 CNS
OVCAR-5 ovarian = system: OVCAR-5 ovarian
M14 melanoma = system: M14 melanoma
DU-145 prostate = system: DU-145 prostate
UACC-257 melanoma = system: UACC-257 melanoma
786-0 renal = system: 786-0 renal
MDA-MB-231 breast = system: MDA-MB-231 breast
SR leukemia = system: SR leukemia
PC-3 prostate = system: PC-3 prostate
K-562 leukemia = system: K-562 leukemia
OVCAR-3 ovarian = system: OVCAR-3 ovarian
MOLT-4 leukemia = system: MOLT-4 leukemia
SK-MEL-2 melanoma = system: SK-MEL-2 melanoma
MALME-3M melanoma = system: MALME-3M melanoma
LOX IMVI melanoma = system: LOX IMVI melanoma

SMILES: CCCCCCn1c(O)c(N=Nc2nc(-c3cc4ccccc4oc3=O)cs2)c2ccccc21
- GI50 (HCT-15 colon): 15.2 µM
- TGI (HCT-15 colon): 28.7 µM
- GI50 (A498 renal): 19.7 µM
- TGI (A498 renal): 33.9 µM
- GI50 (HOP-92 NSCLC): 11 µM
- TGI (HOP-92 NSCLC): 23.9 µM
- GI50 (SN12C renal): 17.4 µM
- TGI (SN12C renal): 31.2 µM
- GI50 (NCI-H460 lung): 15.1 µM
- TGI (NCI-H460 lung): 30.1 µM
- GI50 (NCI-H522 lung): 4.1 µM
- TGI (NCI-H522 lung): 14 µM
- GI50 (SNB-19 CNS): 15.1 µM
- TGI (SNB-19 CNS): 28.4 µM
- GI50 (HOP-62 NSCLC): 16.2 µM
- TGI (HOP-62 NSCLC): 30.3 µM
- GI50 (RPMI-8226 leukemia): 17.2 µM
- TGI (RPMI-8226 leukemia): 53.1 µM
- GI50 (NCI-H226 lung): 14.9 µM
- TGI (NCI-H226 lung): 28.1 µM
- GI50 (OVCAR-8 ovarian): 17.1 µM
- TGI (OVCAR-8 ovarian): 32.1 µM
- GI50 (RXF 393 renal): 8.91 µM
- TGI (RXF 393 renal): 21.1 µM
- GI50 (SK-MEL-28 melanoma): 13.9 µM
- TGI (SK-MEL-28 melanoma): 26.8 µM
- GI50 (ACHN renal): 16.7 µM
- TGI (ACHN renal): 30.3 µM
- GI50 (A549 NSCLC): 13.6 µM
- TGI (A549 NSCLC): 27.7 µM
- GI50 (SF-295 CNS): 14.4 µM
- TGI (SF-295 CNS): 27.5 µM
- GI50 (OVCAR-5 ovarian): 17.1 µM
- TGI (OVCAR-5 ovarian): 30.8 µM
- GI50 (M14 melanoma): 15 µM
- TGI (M14 melanoma): 28.8 µM
- GI50 (DU-145 prostate): 16.3 µM
- TGI (DU-145 prostate): 30.1 µM
- GI50 (UACC-257 melanoma): 17.4 µM
- TGI (UACC-257 melanoma): 31.7 µM
- GI50 (786-0 renal): 17.5 µM
- TGI (786-0 renal): 31.4 µM
- GI50 (MDA-MB-231 breast): 11.6 µM
- TGI (MDA-MB-231 breast): 23.8 µM
- GI50 (SR leukemia): 7.19 µM
- TGI (SR leukemia): 34.8 µM
- GI50 (PC-3 prostate): 10.6 µM
- TGI (PC-3 prostate): 23.5 µM
- GI50 (K-562 leukemia): 15.2 µM
- TGI (K-562 leukemia): 43.8 µM
- GI50 (OVCAR-3 ovarian): 16.9 µM
- TGI (OVCAR-3 ovarian): 30.8 µM
- GI50 (MOLT-4 leukemia): 15.8 µM
- TGI (MOLT-4 leukemia): 42.6 µM
- GI50 (SK-MEL-2 melanoma): 18.3 µM
- TGI (SK-MEL-2 melanoma): 32.4 µM
- GI50 (MALME-3M melanoma): 16.9 µM
- TGI (MALME-3M melanoma): 30.6 µM
- GI50 (LOX IMVI melanoma): 15.5 µM
